Test results reported in patent publication US20220331303A1, “USE OF AN OREXIN 2 RECEPTOR AGONIST FOR THE TREATMENT OF EXCESSIVE SLEEPINESS” (Takeda Pharmaceutical Company Limited, priority 2019, published 2022).

Tested on: sleep-deprived healthy volunteers
Assay: Polysomnography (PSG) of recovery sleep after sleep deprivation in healthy volunteers
Assay type: in vivo, human
Procedure: Exploratory objectives in sleep-deprived healthy volunteers were as follows: • 1. To compare the effects of Compound A (LD and HD) and modafinil (300 mg) on promoting wakefulness as measured by MWT. • 2. To determine PK-PD relationships for selected PD measures. • 3. To evaluate PK-BP relationships in BP change after Compound A administration. • 4. To compare various polysomnography (PSG) parameters between Day −1 (predose) and Day 2 (recovery sleep). • 5. To determine whether there is any difference in the PSG parameters on Day 2 (recovery sleep) between Compound A and placebo or modafinil. • 6. To evaluate the continuous electroencephalogram (EEG) obtained during the MWTs for power spectra changes for Compound A (LD and HD) versus placebo, Compound A (LD and HD) versus modafinil, and modafinil versus placebo.
During the day before dosing on Day 1, participants were administered the KSS at scheduled timepoints. A practice MWT session was performed on Day 1 treatment period 1 (only once during the entire study) to familiarize subjects with the procedures. Study drug was administered in the clinic in the evening on Day 1 of each treatment period. Subjects underwent the MWT and KSS at specified timepoints after the start of the infusion. Subjects were required to stay awake between the MWT tests. Following completion of the IV infusion on Day 2, subjects underwent an additional MWT test. When the final MWT test and cognitive testing were completed, subjects were allowed to sleep (recovery sleep) for approximately 6 hours. PSG recording was collected during this time. Subjects were discharged from the unit after completion on Day 2 with continuing actigraphy upon discharge (to begin on Day −6 before the next treatment period). The interval between each subsequent treatment period was at least 7 days to ensure that the subject's circadian rhythm had returned to a normal cycle. Subject's vital signs, including BP, were monitored during the dosing and testing period. Blood samples for determination of Compound A plasma concentrations were collected at specified timepoints on Days 1 and 2 of each treatment period. Subjects completed the Columbia-Suicide Severity Rating Scale (C-SSRS) during screening, before study drug administration, and before discharge on Day 2 of each treatment period.
The PSGs assess recovery sleep during the day after the end of the sleep deprivation period. There were no corrections for multiple comparisons. […]

[1] = M: Modafinil 300 mg, recovery sleep
[2] = Modafinil 300 mg, recovery sleep

For NC(=O)C[S+]([O-])C(c1ccccc1)c1ccccc1 (stereo not shown) [Modafinil, modafinil, reference compound], the “Stage N3 Duration LS Mean” value (M: Modafinil 300 mg) was 51.61 min, the “Stage N3 Duration LS Mean Difference vs placebo Estimate” value (M: Modafinil 300 mg) was -29.78 min and the “Stage REM % LS Mean” value (M: Modafinil 300 mg) was 17.46%. For the same molecule, the “Stage REM % LS Mean Difference vs placebo Estimate” value (M: Modafinil 300 mg) was −3.92%, the “Stage REM Duration LS Mean” value (M: Modafinil 300 mg) was 41.38 min and the “Stage REM Duration LS Mean Difference vs placebo Estimate” value (M: Modafinil 300 mg) was -25.18 min. The “Stage Wake % LS Mean” value (M: Modafinil 300 mg) was 23.01%, the “Stage Wake % LS Mean Difference vs placebo Estimate” value (M: Modafinil 300 mg) was 12.71% and the “Stage Wake Duration LS Mean” value (M: Modafinil 300 mg) was 60.92 min. The “Stage Wake Duration LS Mean Difference vs placebo Estimate” value (M: Modafinil 300 mg) was 25.39 min, the “Total Arousal Index LS Mean” value (M: Modafinil 300 mg) was 14.28 and the “Total Arousal Index LS Mean Difference vs placebo Estimate” value (M: Modafinil 300 mg) was 4.28. For the same molecule, the “Total Arousal LS Mean” value (M: Modafinil 300 mg) was 51.11, the “Total Arousal LS Mean Difference vs placebo Estimate” value (M: Modafinil 300 mg) was 0.70 and the “Total Leg Movements LS Mean” value (M: Modafinil 300 mg) was 23.91. The “Total Leg Movements LS Mean Difference vs placebo Estimate” value (M: Modafinil 300 mg) was 4.97, the “Total Leg Movements N1 LS Mean” value (M: Modafinil 300 mg) was 2.19 and the “Total Leg Movements N1 LS Mean Difference vs placebo Estimate” value (M: Modafinil 300 mg) was 0.93. The “Total Leg Movements N2 LS Mean” value (M: Modafinil 300 mg) was 10.10, the “Total Leg Movements N2 LS Mean Difference vs placebo Estimate” value (M: Modafinil 300 mg) was 1.56 and the “Total Leg Movements N3 LS Mean” value (M: Modafinil 300 mg) was 2.61. For the same molecule, the “Total Leg Movements N3 LS Mean Difference vs placebo Estimate” value (M: Modafinil 300 mg) was 0.99, the “Total Leg Movements REM LS Mean” value (M: Modafinil 300 mg) was 5.75 and the “Total Leg Movements REM LS Mean Difference vs placebo Estimate” value (M: Modafinil 300 mg) was 0.00. The “Total Leg Movements with Awakening LS Mean” value (M: Modafinil 300 mg) was 3.14, the “Total Leg Movements with Awakening LS Mean Difference vs placebo Estimate” value (M: Modafinil 300 mg) was 1.39 and the “Total Leg Movements with Microarous LS Mean” value (M: Modafinil 300 mg) was 3.44. The “Total Leg Movements with Microarous LS Mean Difference vs placebo Estimate” value (M: Modafinil 300 mg) was 1.43, the “Total Leg Movements with Resp Event LS Mean” value (M: Modafinil 300 mg) was 0.04 and the “Total Leg Movements with Resp Event LS Mean Difference vs placebo Estimate” value (M: Modafinil 300 mg) was −0.01. For the same molecule, the “Total Leg Movements without Arousal LS Mean” value (M: Modafinil 300 mg) was 20.42, the “Total Leg Movements without Arousal LS Mean Difference vs placebo Estimate” value (M: Modafinil 300 mg) was 3.50 and the “Total Recording Time LS Mean” value (M: Modafinil 300 mg) was 321.98 min. For the same molecule, the “Total Recording Time LS Mean Difference vs placebo Estimate” value (M: Modafinil 300 mg) was -34.92 min, the “Total Sleep Time LS Mean” value (M: Modafinil 300 mg) was 224.54 min and the “Total Sleep Time LS Mean Difference vs Placebo Estimate” value (M: Modafinil 300 mg) was -84.93 min. The “Wake After Persistent Sleep LS Mean” value (M: Modafinil 300 mg) was 47.63 min, the “Wake After Persistent Sleep LS Mean Difference vs placebo Estimate” value (M: Modafinil 300 mg) was 13.00 min and the “Wake After Sleep Onset LS Mean” value (M: Modafinil 300 mg) was 60.92 min. For the same molecule, the “Wake After Sleep Onset LS Mean Difference vs placebo Estimate” value (M: Modafinil 300 mg) was 25.39 min, the “PSG Awakenings LS Mean” value [1] was 5.38 and the “PSG Awakenings LS Mean Difference vs Placebo Estimate” value [1] was 0.89. For the same molecule, the “PSG N1 Latency LS Mean” value [1] was 6.07 min, the “PSG N1 Latency LS Mean Difference vs Placebo Estimate” value [1] was 0.71 min and the “PSG N2 Latency LS Mean” value [1] was 8.62 min. For the same molecule, the “PSG N2 Latency LS Mean Difference vs Placebo Estimate” value [1] was 1.98 min, the “PSG N3 Latency LS Mean” value [1] was 38.00 min and the “PSG N3 Latency LS Mean Difference vs Placebo Estimate” value [1] was 10.73 min. The “PSG Per. Slp LS Mean” value [1] was 26.19 min, the “PSG Per. Slp LS Mean Difference vs Placebo Estimate” value [1] was 19.32 min and the “PSG REM Latency LS Mean” value [1] was 71.67 min. The “PSG REM Latency LS Mean Difference vs Placebo Estimate” value [1] was 16.73 min, the “PSG Sleep Efficiency LS Mean” value [1] was 68.28% and the “PSG Sleep Efficiency LS Mean Difference vs Placebo Estimate” value [1] was −18.44%. For the same molecule, the “PSG Sleep Onset LS Mean” value [1] was 5.99 min, the “PSG Sleep Onset LS Mean Difference vs Placebo Estimate” value [1] was 2.00 min and the “PSG Spontaneous Arousal Index LS Mean” value [1] was 11.91. The “PSG Spontaneous Arousal Index LS Mean Difference vs Placebo Estimate” value [1] was 2.98, the “PSG Spontaneous Arousal LS Mean” value [1] was 42.14 and the “PSG Spontaneous Arousal LS Mean Difference vs Placebo Estimate” value [1] was −2.93. The “PSG Stage N1 % LS Mean” value [1] was 10.14%, the “PSG Stage N1 % LS Mean Difference vs Placebo Estimate” value [1] was 4.05% and the “PSG Stage N1 Duration LS Mean” value [1] was 19.12 min. The “PSG Stage N1 Duration LS Mean Difference vs Placebo Estimate” value [1] was 0.72 min, the “PSG Stage N2 % LS Mean” value [1] was 50.94% and the “PSG Stage N2 % LS Mean Difference vs Placebo Estimate” value [1] was 4.24%. For the same molecule, the “PSG Stage N2 Duration LS Mean” value [1] was 111.09 min, the “PSG Stage N2 Duration LS Mean Difference vs Placebo Estimate” value [1] was -32.99 min and the “PSG Stage N3 % LS Mean” value [1] was 21.61%. For the same molecule, the “PSG Stage N3 % LS Mean Difference vs Placebo Estimate” value [1] was −4.22%, the “PSG sleep efficiency, LS mean difference vs placebo” value [2] was −18.44% and the “PSG spontaneous arousal index, LS mean difference vs placebo” value [2] was 2.98. For the same molecule, the “PSG stage N1 %, LS mean difference vs placebo” value [2] was 4.05%, the “PSG stage N2 duration, LS mean difference vs placebo” value [2] was -32.99 min and the “PSG stage N3 %, LS mean difference vs placebo” value [2] was −4.22%. The “PSG stage N3 duration, LS mean difference vs placebo” value [2] was −29.78, the “PSG stage REM %, LS mean difference vs placebo” value [2] was −3.92% and the “PSG stage REM duration, LS mean difference vs placebo” value [2] was -25.18 min. The “PSG stage wake %, LS mean difference vs placebo” value [2] was 12.71%, the “PSG stage wake duration, LS mean difference vs placebo” value [2] was 25.39 min and the “PSG time to per. slp (persistent sleep), LS mean difference vs placebo” value [2] was 19.32 min. For the same molecule, the “PSG total arousal index, LS mean difference vs placebo” value [2] was 4.28, the “PSG total recording time, LS mean difference vs placebo” value [2] was -34.92 min and the “PSG total sleep time, LS mean difference vs placebo” value [2] was -84.93 min. For the same molecule, the “PSG wake after sleep onset, LS mean difference vs placebo” value [2] was 25.39 min.
